Measurements as given in patent publication US10653680B2, “Treatment of impulsivity-related disorders” (OXFORD UNIVERSITY INNOVATION LIMITED, priority 2016, dated 2020).

Legend:
rats [1] = assay: 5-CSRTT, stimulant (cocaine)-induced responding; format: in vivo, rats (males; Long Evans)
Procedure: (§1) Testing was carried out in Vancouver (Canada) using rats (males; Long Evans from Charles River) which were given at least two weeks to acclimatise to the animal facility. They were housed in pairs on a 12 hour reverse light-dark cycle (lights off at 7 am). In the second week of acclimatisation, rats were handled briefly each day. […] For each task, there was then a habituation session to the operant boxes before training began.
(§2) Ebselen, cocaine and 2,5-dimethoxy-4-iodoamphetamine (DOI) were obtained from Sigma Aldrich, and MDL 100,907 was obtained from Tocris. Ebselen was dissolved in 0.5M DMSO and made up to injection volume (8 ml/kg) using 4% cyclodextrin. Cocaine and DOI were dissolved in 0.9% saline. MDL 100,907 was dissolved in 0.9% saline and the pH was adjusted to 6.25 using 1M NaOH and 0.1M HCl.
(§3) All data for the cognitive tasks are presented as mean+SEM change from baseline: • performance on drug day−performance on the previous day
In experiments investigating the effect of ebselen on cocaine and DOI, data were analysed with a two-way ANOVA with ebselen and cocaine/DOI as between-subject factors. If an interaction was detected, this was further investigated using simple main effects analysis. All analyses were conducted using SPSS 22 with p<0.05 considered significant.
To assess the effect of ebselen on stimulant-induced responding, ebselen (10 mg/kg) or vehicle was administered 1 hour prior to cocaine (15 mg/kg i.p.), which in turn was administered 10 minutes prior to testing. Treatments were administered using according to a Latin square design. The inter-trial interval for these sessions was 5 seconds. Two rats were excluded from the data due to increasing levels of omissions across all days of this portion of the study. The experiment was repeated using 0.03 mg/kg MDL 100,907 instead of ebselen.

rats [2] = assay: 5 Choice Serial Reaction Time Task (5-CSRTT); format: in vivo, rats (males; Long Evans)
Procedure: as §1, §2, §3
The data were analysed with repeated measures ANOVA with dose as a within-subject factor. Where appropriate, post-hoc analysis was performed using Student's paired t-test.
This test was performed as described previously (Bari et al., Nature Protocols, 2008, 3(5), 759-767; Robbins, Psychopharmacology, 2002, 163(3), 362-380).
Fourteen rats were trained to respond to brief visual cues presented in one of five target areas with an inter-trial interval of 5 seconds. On the day of testing in the presence of ebselen, the inter-trial interval was lengthened to 7 seconds to cause a reliable increase in premature responding.
Ebselen and vehicle were administered by intraperitoneal (i.p.) injection 1 hour prior to testing. Three doses of ebselen (2, 5 or 10 mg/kg) were studied, administration being in a random order that was determined by a Latin square design. Rats were run five days a week, with the treatment day falling on day three.
Following ebselen, 3 doses of MDL 100,907 (0.01, 0.03 and 0.1 mg/kg, i.p.) were tested in a Latin square design with the first injection occurring one week after the final injection of ebselen. MDL 100,907 is a selective 5-HT2A antagonist. Rats were similarly run five days a week with injections falling on the third day, and the lengthened inter-trial interval was used only on the drug-administration day.
The Latin square design (for both the 5-CSRTT and rGT experiments) was counterbalanced, based on performance in the last training day of each task. A one week wash-out period was given between drug-administration days. A baseline session was performed both the day before and the day after treatment to ensure stable off-drug performance.

## COc1cccc([C@H](O)C2CCN(CCc3ccc(F)cc3)CC2)c1OC [MDL 100,907, reference compound]
Rats [1]; MDL 100,907 0.03 mg/kg before cocaine 15 mg/kg i.p., p=0.282
  cocaine-induced increases in premature responding: did not reduce cocaine-induced increases in premature responding
Rats [1]; MDL 100,907 0.03 mg/kg, cocaine experiment, p=0.072
  correct response latency: increased trend
Rats [2]; MDL 100,907 0.01 mg/kg (second mention), p=0.027
  accuracy (decrease seen following vehicle injection): significantly negated the decrease in accuracy
Rats [2]; MDL 100,907 0.01 mg/kg i.p., p=0.020
  accuracy (decrease seen following vehicle injection): significantly negated the decrease in accuracy
Rats [2]; MDL 100,907 0.03 mg/kg i.p., p=0.052
  accuracy (decrease seen following vehicle injection): trend
Rats [2]; MDL 100,907 0.01, 0.03, 0.1 mg/kg i.p., p=0.170-0.872
  other parameters of the 5-CSRTT: no detectable effects
Rats [2]; MDL 100,907 at all dosage levels (0.01, 0.03 and 0.1 mg/kg i.p.) vs vehicle, p=0.008, 0.009, 0.001
  premature responding: decreased premature responding
